Target: T1, Human Akt1 (UniProt entry P31749) (Homo sapiens, UniProt P31749, C296S/C310S/C344S/E49C)
T1 construct: made in house; host or cells: baculovirus, TriEx Sf9 cells
Test: iFLiK assay (fluorophore-labeled Akt1 binding assay)
Conditions: for effect on PyMPO fluorescence (emission spectrum): PyMPO-labeled Akt1
Method: Measurements were carried out in black 384-well plates (Greiner Bio One). Labeled Akt1 was diluted to 200 nM in the measurement buffer consisting of 50 mM HEPES pH 7.4, 200 mM NaCl and 0.01% Triton-X 100. Dilution series of candidate compounds were prepared in DMSO at 21X the final desired concentration. Compounds (0.5 µL) were then mixed with labeled Akt1 (10 µL) in triplicates and with measurement buffer only in quadruplicates at 12 different concentrations to achieve final compound concentrations ranging from 0.8 nM to […]. Each well contained 5% v/v DMSO after mixing. Plates were then covered with an adhesive plastic foil and incubated for 2 h at RT prior to measurement of emission intensities at fluorophore-specific wavelengths (Table 1) using a Tecan Infinite M1000 plate reader. Compound auto-fluorescence was compensated by subtraction of the average background signals obtained in the absence of labeled kinase. The respective assay readout for the various Akt-fluorophore conjugates specified in Table 1 were fit to a Hill 4-parameter equation to determine Kd values for allosteric Akt ligands. Each reaction was performed in triplicate and at least three independent measurements of each Kd were determined for each ligand. Table 1: Overview of fluorophore probes.
Screening initiatives were carried out in black 384-well plates (Greiner Bio One). PyMPO-labeled Akt1 was diluted to 200 nM in the measurement buffer consisting of 50 mM HEPES pH 7.4, 200 mM Nacl and 0.01% Triton-X 100. Each candidate compound was prepared in DMSO at 210 µM. Compounds (0.5 µL) were then mixed each with labeled Akt1 (10 µL) and with measurement buffer only to achieve final compound concentrations of 10 µM. Each well contained 5% v/v DMSO after mixing. Plates were then covered with an adhesive plastic foil and incubated for 2 h at RT prior to measurement using a Tecan Infinite M1000 plate reader emission intensities at 508 nm and 638 nm, using both 419 nm and 440 nm for excitation. Compound auto-fluorescence was compensated by subtraction of the average background signals obtained in the absence of labeled kinase. Ratio of fluorescence intensities fl638/fl508 were calculated from the background-subtracted values. For hit picking criteria, see Table 2 below.

T1 sequence (P31749 whole entry E49C/C296S/C310S/C344S, one chain of several): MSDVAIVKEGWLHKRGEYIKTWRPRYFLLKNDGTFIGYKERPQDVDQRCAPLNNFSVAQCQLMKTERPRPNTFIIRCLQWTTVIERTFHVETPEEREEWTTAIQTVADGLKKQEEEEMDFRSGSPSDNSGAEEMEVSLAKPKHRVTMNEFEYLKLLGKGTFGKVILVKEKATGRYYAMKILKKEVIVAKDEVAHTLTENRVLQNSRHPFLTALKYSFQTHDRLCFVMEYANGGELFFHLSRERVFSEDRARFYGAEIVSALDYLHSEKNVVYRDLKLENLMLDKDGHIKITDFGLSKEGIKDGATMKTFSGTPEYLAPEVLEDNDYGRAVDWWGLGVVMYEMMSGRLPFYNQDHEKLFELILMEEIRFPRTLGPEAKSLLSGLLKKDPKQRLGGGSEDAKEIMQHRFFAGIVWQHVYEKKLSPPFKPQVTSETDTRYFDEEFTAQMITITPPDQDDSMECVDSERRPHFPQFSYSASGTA

Structure (SMILES)	effect on PyMPO fluorescence (emission spectrum)	response of the labeled kinase (collection of fluorophore-labeled kinases, dilution series 0.8 nM to 50 µM)
NC1(c2ccc(-c3nc4ccn5c(=O)[nH]nc5c4cc3-c3ccccc3)cc2)CCC1 [MK-2206]	bathochromic shift	
NC1(Cc2ccc(Cl)cc2)CCN(c2ncnc3[nH]ccc23)CC1 [CCT128930]	no effect	
CCn1c(-c2nonc2N)nc2c(C#CC(C)(C)O)ncc(OC[C@H]3CCCNC3)c21 [GSK690693]	no effect	unresponsive
O=C(O[C@@H]1Cc2c(O)cc(O)cc2O[C@@H]1c1cc(O)c(=O)c2c(O)c(O)cc([C@H]3Oc4cc(O)cc(O)c4C[C@H]3O)c2c1)c1cc(O)c(O)c(O)c1 [XX8]	reduction of the fluorescence intensity	

Source: EP2810648A1, “Targeting domain-domain interaction for the identification of kinase modulators” (Rauh, Daniel, priority 2013, dated 2014)
